These results are taken from patent publication US9464064B2, “HCV helicase inhibitors and methods of use thereof” (University of Kansas, priority 2011, dated 2016).

One data set is described as follows: Plasma stability, mouse. The note with it: percent remaining at 3 hours. It is filed as in vitro ADME. Here is the method: Stability of compounds in human plasma (BioChemed Services) and mouse plasma (BioChemed Services) were determined. All liquid was dispensed and transfer steps were performed with the FREEDOM EVO automated liquid handler (Tecan US). Plasma was allowed to thaw at room temperature prior to preparing the assay solution of plasma:1×PBS (1:1). The assay solution was warmed up at 37° C. prior of adding the compound. Immediately after compounds were added, time 0 minute aliquots were promptly collected and mixed with cold acetonitrile (spiked with an internal standard). The remainder of the reaction volume was incubated at 37° C. with shaking. Additional aliquots were collected 180 minutes after the start of the reaction and promptly quenched with cold acetonitrile (spiked with an internal standard). Samples were centrifuged at 3000 rpm for 10 minutes. The amount of compound in the supernatant was determined by LC/MS/MS (Applied Biosystems, Sciex API4000 Q-TRAP) and the percent of parent compound remaining after 180 minutes was calculated by the following formula: % parent compound remaining=[(concentration at 180 minutes/concentration at 0 minutes)×100]. Results reported are the mean of each reaction duplicate, normalized to the internal standard, and expressed as a percent of compound remaining after the incubation time. […]

A short description of data set [1]: Plasma protein binding (RED), mouse. It is filed as in vitro ADME. As for the experimental part: TEFLON Base Plate wells were rinsed with 20% ethanol for 10 minutes. Ethanol was then removed and wells were rinsed with ultrapure water and allowed to dry. RED (rapid equilibrium dialysis) inserts from Thermo Scientific (Pierce) were placed (open end up) into the wells of the base plate. All liquid was dispensed and transfer steps were performed with the FREEDOM EVO automated liquid handler (Tecan US). The sample chambers (red ring) contained 300 μl of a mixture of plasma and compound, and the buffer chambers received 500 μl of dialysis buffer (1×PBS, pH7.4). Duplicate inserts were made for each concentration tested. The base plate was covered with sealing tape and incubated at 37° C. on an orbital shaker at 350 rpm for 4 hours. After the incubation time, equal volumes from both chambers were removed and transferred to a 96 well plate containing either plasma or buffer. […] The amount of compound in the supernatant was determined by LC/MS/MS (Applied Biosystems, Sciex API4000 Q-Trap). The percent of free and bound compounds were calculated with the following formula: % of bound parent compound=[(amount of compound in donor-receiver/amount of compound in donor)×100]. Results reported are the mean of each reaction duplicate, normalized to the internal standard, and expressed as a percent compound bound after the incubation time. […]

Data set [2] can be described thus: Chemical stability (hydrolytic). The format is physicochemical. The following applies: PBS with 50% acetonitrile, pH 7.4; % remaining after 48 hours at room temperature. As for the experimental part:
The stability of compounds in 1×PBS, pH 7.4, and at room temperature, was determined. Stability was also assessed in the presence of 50% ACN. Compounds were diluted and time 0 hour aliquots were collected and transferred to acetonitrile (spiked with an internal standard). The remainder of the volume was incubated for 48 hours, with additional aliquots collected at different time points (6 total). The amount of compound was determined by LC/MS/MS. The parent compound remaining was calculated by the following formula: % parent compound remaining=[(concentration at x hour/concentration at 0 hour)×100]. Results are the mean of each reaction triplicate, normalized to the internal standard, and expressed as a percent compound remaining after 48 hours.

Data set [3] relates to HCV replication complexes in Huh-7.5/HCV Con1sg Rluc cells. Briefly: Indirect immunofluorescence staining of NS5A (replication complexes). The following applies: 10 μM, 72 hours. The format is cell-based, hepatitis C virus. As for the experimental part: For indirect immunofluorescence staining, Huh-7.5/HCV Con1sg Rluc cells were plated on cover slips in a 24-well plate. The next day, compounds were added at a 10 μM concentration and after 48 hours from the first addition, the medium was supplemented with 10 μM compound. Interferon alpha-2b was used as positive control at 100 U/well and added at the same time points as compounds. After 72 hours, indirect immunofluorescence staining was performed according to standard methods. Cells were fixed in 1% PFA for 40 minutes, washed thrice with 5 mL PBS, permeabilized with 0.05% saponin (Sigma) and blocked with 3% BSA in PBS for 1 hour at 37° C. Subsequently, cells were washed with 2 mL PBS three times and incubated with mouse monoclonal antibody 9E10 against NS5A diluted in blocking buffer for 1 hour at room temperature. Cells were washed three times with 2 ml PBS and once with 3% BSA. The cells were then incubated with ALEXA 546 conjugated-goat F(ab′)2 anti-mouse immunoglobulin G (IgG) (Invitrogen) for 1 hour at room temperature. Cells were washed twice with PBS and then mounted on glass slides using PROLONG Gold anti-fade reagent (Invitrogen). Appropriate controls were performed to rule out nonspecific binding of primary and secondary antibodies.
Microscopy was performed with a Nikon Ti-E inverted fluorescence microscope using a 20× and 40×/NA 1.4 objective. […]

For the molecule `Cc1ccc2nc(-c3ccc4nc(-c5ccc(NC(=O)c6cccc(Cl)c6)cc5)sc4c3)sc2c1S(=O)(=O)O` [Compound 17, 2′-(4-(3-chlorobenzamido)phenyl)-6-methyl-[2,6′-bibenzo[d]thiazole]-7-sulfonic acid], in the data set “Plasma stability, mouse”, the “Plasma Stability Mouse” value is given as 95.0%. Further, the fraction unbound at 4 h, 1 μM in data set [1] (pH 7.4, 1 μM, read-out: Plasma Protein Binding (% Bound) Mouse (converted)) was 0.02. Further, the fraction unbound at 4 h, 10 μM in data set [1] (pH 7.4, 10 μM, read-out: Plasma Protein Binding (% Bound) Mouse) came out at 0.01. The “Aqueous Stability” value in data set [2] is 100%.

With `Cc1ccc2nc(-c3ccc4nc(-c5ccc(NC(=O)c6cc(C(F)(F)F)cc(C(F)(F)F)c6)cc5)sc4c3)sc2c1S(=O)(=O)O` [Compound 24, 2′-(4-(3,5-bis(trifluoromethyl)benzamido)phenyl)-6-methyl-[2,6′-bibenzo[d]thiazole]-7-sulfonic acid], the “number of HCV replication complexes (NS5A staining)” value in data set [3] is “lower number of replication complexes”.
